Among the test systems are SN12C renal; MDA-N; MOLT-4 leukemia; A549 NSCLC; M14 melanoma; CAKI-1 renal; UACC-257 melanoma; SW-620 colon; ACHN renal; NCI-H460 lung.
Holding throughout (test): growth of human tumour cells (NCI), 48 h

Structures are written as SMILES.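 Method: 48-hour compound exposure of cells in 96-well plates, five concentrations, linear interpolation of endpoints. TGI denotes the concentration required for complete inhibition of growth.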 Bounds are passed on as bounds.

With `C(=N\c1nc2cc3sc(/N=C/c4ccccc4)nc3cc2s1)/c1ccccc1`, the TGI is more than 100 µM in the assay with SN12C renal; more than 100 µM in the assay on MDA-N; more than 80.9 µM in the assay with MOLT-4 leukemia; more than 100 µM in the assay with A549 NSCLC; more than 100 µM in the assay with M14 melanoma; more than 100 µM with CAKI-1 renal. The TGI in the assay on UACC-257 melanoma, in the assay with SW-620 colon, with ACHN renal and with NCI-H460 lung was more than 100 µM each time.

Consider `COC1OC2COC1(OCc1ccccc1)C1OC(C)(C)OC21` (stereo not given), for which the TGI in the assay with SN12C renal, in the assay with MDA-N, in the assay with MOLT-4 leukemia, in the assay with A549 NSCLC, with M14 melanoma and in the assay on CAKI-1 renal was more than 100 µM in each case. The TGI in the assay on UACC-257 melanoma, with SW-620 colon, in the assay on ACHN renal and in the assay with NCI-H460 lung was more than 100 µM in each case.

For `CC(NC1=NCCO1)c1ccccc1Cl` (stereo not given), the TGI in the assay with SN12C renal, in the assay with MDA-N, in the assay on MOLT-4 leukemia, with A549 NSCLC, in the assay with M14 melanoma and in the assay with CAKI-1 renal was more than 100 µM each time. Also, the TGI in the assay with UACC-257 melanoma, in the assay on SW-620 colon, in the assay on ACHN renal and in the assay on NCI-H460 lung was more than 100 µM in each case.

Regarding `O=[N+]([O-])c1ccc(-c2csc(N=Nc3c(O)[nH]c4ccccc34)n2)cc1`, the TGI with SN12C renal is 96.5 µM; in the assay with MDA-N it was more than 100 µM; in the assay on MOLT-4 leukemia, more than 100 µM; in the assay on A549 NSCLC, 81.3 µM; in the assay with M14 melanoma, 36.4 µM; in the assay with CAKI-1 renal it was 39.4 µM. For the same compound, the TGI in the assay with UACC-257 melanoma was more than 100 µM; in the assay with SW-620 colon it was more than 100 µM; with ACHN renal, more than 100 µM; in the assay on NCI-H460 lung it was 22.9 µM.

`CCn1c(SCC(=O)N/N=C2\SCC(=O)N2c2ccc(C)cc2)nc2ccccc2c1=O`: the TGI is 50.4 µM in the assay on SN12C renal; 53.4 µM in the assay with MDA-N; more than 100 µM in the assay on MOLT-4 leukemia; 43.3 µM with A549 NSCLC; more than 100 µM with M14 melanoma; 33.2 µM in the assay with CAKI-1 renal. In addition, the TGI in the assay with UACC-257 melanoma is 35.3 µM; in the assay with SW-620 colon, more than 100 µM; in the assay on ACHN renal, 34.2 µM; with NCI-H460 lung, 57.4 µM.

As for `CC(C)(C)c1cc(/C=C(\C#N)C2=NCCO2)cc(C(C)(C)C)c1O`, the TGI in the assay with SN12C renal was 10.1 µM; with MDA-N it was 16.6 µM; in the assay with MOLT-4 leukemia, 21.1 µM; with A549 NSCLC, 19.7 µM; in the assay on M14 melanoma, 17 µM; in the assay with CAKI-1 renal it was more than 35.5 µM. The TGI in the assay with UACC-257 melanoma was determined as 7.89 µM; in the assay on SW-620 colon it was 18.5 µM; in the assay with ACHN renal, 14.5 µM; in the assay with NCI-H460 lung, 6.63 µM.

With `COc1ccc(CCN2CCN(CCCc3ccccc3)CC2)cc1`, the TGI in the assay with SN12C renal, with MDA-N, with MOLT-4 leukemia, with A549 NSCLC, in the assay with M14 melanoma and with CAKI-1 renal was more than 100 µM in each case. Moreover, the TGI in the assay with UACC-257 melanoma, with SW-620 colon, in the assay on ACHN renal and in the assay on NCI-H460 lung was more than 100 µM in each case.

Regarding `CCOC(=O)C(NC(=O)c1cccc(Cl)c1)(Nc1ccc(S(=O)(=O)Nc2cc(C)on2)cc1)C(F)(F)F` (stereo not given), the TGI in the assay with SN12C renal, in the assay with MDA-N, with MOLT-4 leukemia, with A549 NSCLC, in the assay with M14 melanoma and with CAKI-1 renal was more than 100 µM throughout. Besides, the TGI in the assay on UACC-257 melanoma, in the assay on SW-620 colon, with ACHN renal and in the assay on NCI-H460 lung was more than 100 µM throughout.

With `COc1cc(C2C=C(c3ccccc3)Oc3cc4c(cc32)OCO4)cc(OC)c1OC` (stereo not given), the TGI is more than 96.3 µM in the assay on SN12C renal; more than 16.6 µM in the assay on MDA-N; more than 100 µM with MOLT-4 leukemia; more than 100 µM with A549 NSCLC; more than 100 µM with M14 melanoma; more than 100 µM in the assay with CAKI-1 renal. Also, the TGI in the assay with UACC-257 melanoma, in the assay on SW-620 colon, in the assay with ACHN renal and in the assay on NCI-H460 lung was more than 100 µM in each case.

For `NCC(=O)Nc1ccccc1`, the TGI in the assay on SN12C renal, in the assay with MDA-N, with MOLT-4 leukemia, with A549 NSCLC, with M14 melanoma and in the assay on CAKI-1 renal was more than 100 µM in each case. Further, the TGI in the assay with UACC-257 melanoma, with SW-620 colon, with ACHN renal and with NCI-H460 lung was more than 100 µM in each case.

Take `CCOP(=O)(OCC)Oc1c(OC)c2[nH]c(C(=O)OC)cc2c2c(C(=O)O)c[nH]c12`: the TGI with SN12C renal, in the assay on MDA-N, with MOLT-4 leukemia, in the assay with A549 NSCLC, in the assay with M14 melanoma and in the assay with CAKI-1 renal was more than 100 µM throughout. In addition, the TGI in the assay on UACC-257 melanoma, with SW-620 colon, in the assay with ACHN renal and in the assay on NCI-H460 lung was more than 100 µM each time.

In the case of `COc1ccc(/[N+]([O-])=C/c2ccc(OC(=S)S)c(OC)c2)cc1`, the TGI in the assay with SN12C renal was more than 100 µM; with MDA-N, more than 100 µM; in the assay on MOLT-4 leukemia, more than 100 µM; in the assay on A549 NSCLC it was more than 100 µM; with M14 melanoma it was more than 100 µM; in the assay on CAKI-1 renal, 66.7 µM. The TGI in the assay on UACC-257 melanoma, in the assay with SW-620 colon, in the assay with ACHN renal and in the assay on NCI-H460 lung was more than 100 µM in each case.

Take `COc1ccc2c(c1)c1c3c(ccc4ncn2c43)N(CCO)CCN=1`: the TGI in the assay on SN12C renal was 0.519 µM; with MDA-N, 0.808 µM; in the assay with MOLT-4 leukemia it was 0.656 µM; in the assay on A549 NSCLC, 2.22 µM; in the assay on M14 melanoma it was 0.772 µM; in the assay with CAKI-1 renal, 2.51 µM. Besides, the TGI in the assay with UACC-257 melanoma was determined as 1.39 µM; in the assay on SW-620 colon, 3.64 µM; in the assay on ACHN renal, 0.543 µM; with NCI-H460 lung, 0.484 µM.

The values are drawn from PubChem BioAssay (NCI).
